According to ChEMBL document CHEMBL6074635, “Replacement of the essential nitro group by electrophilic warheads towards nitro-free antimycobacterial benzothiazinones” (Eur J Med Chem, 2024):

Assays:
[1] = target: T1, Decaprenylphosphoryl-beta-D-ribose oxidase (Mycobacterium tuberculosis (strain ATCC 25618 / H37Rv)) (UniProt P9WJF1); experiment: Reversible inhibition of recombinant Mycobacterium tuberculosis DprE1 extracted from Escherichia coli BL21(DE3) using FPR/GGPR as substrate by measuring fold change incubated for 60 mins by resazurin dye based fluorescence plate reader analysis relative to (S)-2-Fluoro-N-(2-(2-methyl-1,4-dioxa-8-azaspiro[4.5]decan-8-yl)-4-oxo-6-(trifluoromethyl)-4H-benzo[e][1,3]thiazin-8-yl)acrylamide
T1 sequence (whole entry): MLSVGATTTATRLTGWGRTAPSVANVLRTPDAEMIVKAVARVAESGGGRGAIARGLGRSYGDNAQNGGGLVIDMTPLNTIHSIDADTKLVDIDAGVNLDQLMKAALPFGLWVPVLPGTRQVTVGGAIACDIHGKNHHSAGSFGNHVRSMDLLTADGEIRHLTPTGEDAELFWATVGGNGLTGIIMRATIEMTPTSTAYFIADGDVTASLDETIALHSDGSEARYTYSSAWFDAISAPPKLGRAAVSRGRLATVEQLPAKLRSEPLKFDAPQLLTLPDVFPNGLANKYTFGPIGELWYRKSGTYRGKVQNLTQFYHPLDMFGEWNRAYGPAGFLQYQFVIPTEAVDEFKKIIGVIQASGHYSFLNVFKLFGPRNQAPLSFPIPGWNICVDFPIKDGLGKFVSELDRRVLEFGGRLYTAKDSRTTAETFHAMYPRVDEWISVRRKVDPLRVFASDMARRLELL

[2] = target: T1, Decaprenylphosphoryl-beta-D-ribose oxidase (Mycobacterium tuberculosis (strain ATCC 25618 / H37Rv)); experiment: Covalent inhibition of recombinant Mycobacterium tuberculosis DprE1 extracted from Escherichia coli BL21(DE3) assessed as inactivation rate constant (Kinact) using FPR/GGPR as substrate incubated for 60 mins by resazurin dye based fluorescence plate reader analysis
[3] = target: T1, Decaprenylphosphoryl-beta-D-ribose oxidase (Mycobacterium tuberculosis (strain ATCC 25618 / H37Rv)); experiment: Covalent inhibition of recombinant Mycobacterium tuberculosis DprE1 extracted from Escherichia coli BL21(DE3) assessed as Kinact/Ki ratio using FPR/GGPR as substrate incubated for 60 mins by resazurin dye based fluorescence plate reader analysis
[4] = target: T1, Decaprenylphosphoryl-beta-D-ribose oxidase (Mycobacterium tuberculosis (strain ATCC 25618 / H37Rv)); experiment: Substrate activity at recombinant Mycobacterium tuberculosis DprE1 extracted from Escherichia coli BL21(DE3) assessed as fold change in Km incubated for 60 mins by resazurin dye based fluorescence plate reader analysis relative to FPR

C=CS(=O)(=O)Nc1cc(C(F)(F)F)cc2c(=O)nc(N3CCC4(CC3)OC[C@H](C)O4)sc12
fold change (FC) [1]: 8

C[C@H]1COC2(CCN(c3nc(=O)c4cc(C(F)(F)F)cc(NC(=O)C(C)(C)Br)c4s3)CC2)O1
Kinact [2]: 0.067 min⁻¹
Ratio [3]: 2.13 M⁻¹ s⁻¹

CC(C)=CCC/C(C)=C/CC/C(C)=C/CC/C(C)=C/COP(=O)(O)OC1O[C@H](CO)[C@@H](O)[C@H]1O (some centres undefined)
fold change (FC) [4]: 22
